Data set [1] relates to herpes virus. Conditions: cited from earlier work.
The subject of data set [2] is herpes viruses. Conditions: cited from earlier work.
Data set [3] relates to porcine oocytes. Conditions: cited from earlier work.
Data set [4] has as its system SP1.
The test system of data set [5] is HSV. The following applies: Vero cells, 40 ng/ml. The protocol:
Green Monkey Kidney (Vero) cells were treated with thimerosal (40 ng/ml) at various time points (30 minutes, 1 hour, 2 hours, 3, hours, 4 hours, 6 hours and 8 hours) after HSV infection. The number of plaques formed on day 6 post-infection was used to measure the effectiveness of thimerosal in preventing HSV infections. The number of plaques was normalized to the number of plaques in the control.

For data set [6], the system named is adenovirus. Conditions: person, one drop (0.05 cc) every 15 minutes for an hour, then every hour until bedtime. As to the method: A person with symptoms of an adenovirus infection took one drop of thimerosal (in a dose of 0.05 cc) every 15 minutes for an hour, and then one drop every hour until bedtime.
The test system of data set [7] is TUBB4Q.
Data set [8] concerns BK virus.
Data set [9] deals with HSV. Conditions: ARPE-19 cells, media of PBMCs incubated with 40 ng/ml thimerosal, overlaid prior to HSV infection. As to the method: PBMCs were incubated with 40 ng/ml thimerosal for a minimum of 6 hours and then were overlaid in ARPE-19 cells at various time points (12 hours, 4 hours, 2 hours, 1 hour, 30 minutes and 10 minutes) prior to HSV infection of the ARPE-19 cells. ARPE-19 cells were not continuously treated with thimerosal. ARPE-19 cells receiving thimerosal treatment with PBMC media was used as a control. The number of plaques formed on day 6 post-infection was used to measure the effectiveness of thimerosal in preventing HSV infections. The number of plaques was normalized to the number of plaques in the control.

For data set [10], the system named is TUBA4A.
Data set [11] deals with Vero cells. Conditions: thimerosal doses tested (40 ng or 80 ng in 100 μl media). As to the method: Vero cells were plated to a density of 70% confluency in 96-well dishes at a concentration of 75,000 cells/well). Cells were pretreated with either 40 ng or 80 ng thimerosal in 100 μl media for either 1 hour, 2 hours, 3 hours, 4 hours or 16 hours prior to infection.
After 1 hour at 37° C., virus was removed and cells were washed with unsupplemented MEM to remove unbound virus. The cells were then fed 100 μl/well complete media and stained for Tad (BK virus) or V-ag (JC virus) and scored via direct immunofluorescence.

Data set [12] concerns molluscum contagiosum, a poxvirus infection. Conditions: several children, one drop (0.05 cc) every 15 minutes for an hour, then hourly; six times daily on days 2 and 3.
The text on data set [13]:
A parent shared a drink with their child. Later that day the child asked their parent, who is an RN, to check the child's glands as they felt swollen and their throat hurt.

Data set [14] relates to BK virus. This is another data set of the same source.
For data set [15], the system named is JC virus.
In data set [16] the test system is HSV. Conditions: Vero cells, 40 ng/ml. The protocol: Green Monkey Kidney (Vero) cells were treated with thimerosal (40 ng/ml) at various time points (12 hours, 4 hours, 1 hour, and 30 minutes) prior to and at the time of HSV infection. The number of plaques formed on day 6 post-infection was used to measure the effectiveness of thimerosal in preventing HSV infections.
The source holds these as a separate data set.

The subject of data set [17] is LAT-SPNS1.
The subject of data set [18] is laryngeal papillomas. Conditions: child, one drop (0.05 cc) every 15 minutes for an hour, then hourly; six times daily on days 2 and 3. As to the method: A child suffering from laryngeal papillomas spreading to the soft palate was treated with one drop of thimerosal (in a dose of 0.05 cc) every 15 minutes for an hour and then one drop every hour until bedtime. Thimerosal was administered in one drop every six times daily on days 2 and 3 and then as needed on subsequent days.

Data set [19] has as its system TUBB4.
Data set [20] has as its system common cold. The protocol: A fifty-three old person with classic symptoms of the common cold used one drop of thimerosal (in a dose of 0.05 cc) every hour for one day.
The child of the person in Example 4 was treated with thimerosal for the common cold on several occasions. The child experienced symptoms for 5-7 days without treatment, which was reduced to 1-3 days when treated with thimerosal.

Data set [21] has as its system HSV. Conditions: ARPE-19 cells, 40 ng/ml, continuous treatment before HSV infection, depending on the treatment time point.
Data set [22] deals with Vero cells.
Data set [23] relates to POLR2A.
Data set [24] deals with TUBE1.
[25] abbreviates: treatment at the time of infection.

Structures are written as SMILES. Where “and” joins values, the source holds several entries; their conditions need not be identical. Identical values can stand only once. Like-named read-outs stand apart in the source and are kept apart here.

As to `O=C(O)c1ccccc1SSc1ccccc1C(=O)O` [dithiodibenzoic acid], the “antiviral activity in vivo” value in [1] is on record as “do not provide antiviral activity in vivo”. The “anti-herpes virus activity in vitro” value in data set [2] was “indicated anti-herpes virus activity in vitro”.

For the compound `C[CH2][Hg][S]c1ccccc1C(=O)[O-].[Na+]` [thimerosal], the oocyte activation result in data set [3] (10 minute exposure to 200 μM thimerosal followed by 30 minute incubation in 8 mM DTT) was “induced complete activation of porcine oocytes”. Moreover, the oocyte cell-cycle effect entry in data set [3] (thimerosal treatment alone) is given as “arrests oocytes in metaphase”. The “Fold changes (vs. Control)” value in data set [4] was 1.95 and 2.04 and 2; in data set [7] it was 1.85; in data set [10], 1.96 and 2 and 1.95; in data set [17] it was 1.87; in data set [19] it was 2.13 and 2.12; in data set [23], −1.84. In data set [24], the “Fold changes (vs. Control)” value is 1.95 and 2.03 and 1.98. Moreover, the “number of plaques formed on day 6 post-infection” value was “did not significantly reduce the number of plaques” in data set [5] (all other post-infection time points (30 minutes, 4, 6, 8 hours)); “significant reduction in the plaque numbers” in data set [5] (post-infection treatment from 1-3 hours); “did not change the number of plaques” in data set [5] (setting [25]); “significant decrease in the number of plaques” in data set [16] (prophylactic therapy (12 hours, 4 hours, 1 hour, 30 minutes prior to HSV infection)); “highest reduction in the plaque number” in data set [16] (treatment 1 hour prior to HSV infection); “did not reduce the number of plaques” in data set [16] (setting [25]). Further, the “symptoms of an adenovirus infection” value in data set [6] is “significantly reduced and were gone the next day”. For the same compound, the “infectivity of BK virus” value in data set [8] and in [14] was “reduction of the infectivity of the virus” each time. In addition, the “antiviral activity (plaques day 6) versus thimerosal alone” value in data set [9] is on record as “stronger antiviral activity”. For the same compound, the toxicity to cells result is recorded as “did not appear to be toxic” in [11] and “appeared to be toxic” in [22]. In [12], the “treatment outcome of molluscum contagiosum” value is listed as “successfully treated”. Moreover, in data set [13] (child, one drop (0.05 cc) at a two hour interval), the “symptoms (swollen glands, sore throat)” value is “symptoms were resolved”. Besides, the “development of symptoms after prophylactic dosing” value in data set [13] (parent, dosed as a prophylactic measure) was “did not develop any symptoms”. For the same compound, the “reduction of infectivity of BK virus” value in data set [14] is recorded as “approximately 30%”. Further, the “infectivity of the JC virus” value in data set [15] is “did not appear to inhibit infectivity”. Besides, in data set [2], the “anti-herpes virus activity in vitro” value is recorded as “demonstrate activity against herpes viruses”. Further, the viral propagation entry in data set [2] (thimerosal mixed in a test tube with herpes virus, subsequently introduced into susceptible cells) is given as “viral propagation is not inhibited”. In addition, the “resolution of the symptoms of laryngeal papillomas” value in data set [18] is “complete in five days”. Also, the “duration of common cold symptoms when treated” value in [20] (child, several occasions, 5-7 days without treatment) lay in the range of 1 to 3 days. Besides, in [20] (fifty-three old male, one drop (0.05 cc) every hour for one day), the “symptoms of the common cold” value was “resolved by the next day”. The “inhibition of the activity of HSV (plaques, percent of control)” value in data set [21] is “up to 55%”.

As for `O=C(O)c1ccccc1S` [thiosalicylic acid], the “antiviral activity in vivo” value in data set [1] is on record as “do not provide antiviral activity in vivo”.

The values are drawn from patent US9682058B2, “Method of treating viral infections by administration of ethyl mercury or thiol derivative thereof” (BEECH TREE LABS, INC., priority 2010, dated 2017).
